Several values for one entry are separate records, joined by “and”; a condition that tells them apart may be missing. Identical values can stand only once. Counter-ions that a name gives are not always drawn. Like-named read-outs stand apart in the source and are kept apart here.
Experiments:
[1] = Concentration-response curve fitting and isobolographic analysis of CPEs on VCIP48; format: in vitro ADME, chinchilla
physchem = settings: water
sodium current = settings: read-out: KI, inhibition of sodium current, cited from earlier work
action potentials = settings: read-out: median inhibitory concentration, amplitudes of action potentials, cited from earlier work
H. influenza = settings: cited from earlier work
S. pneumoniae = settings: cited from earlier work
[2] = three-parameter hyperbolic fit of CPE concentration-VCIP48 curve

CCCCN1CCCCC1C(=O)Nc1c(C)cccc1C (stereo not drawn) [BUP, bupivacaine hydrochloride]
Emax relative to that of LIM [1]: 9.76% | Emax relative to that of SDS [1]: 6.15% | CPE concentration at which the permeation enhancement effect plateaued ([1]; Cip permeation, CPPB): ~1% | concentration required to achieve VCIP48=0.22 mg (equivalent dose) ([1]; single CPE in CPPB): infinite | concentration required to achieve VCIP48=0.24 mg (equivalent dose) ([1]; single CPE in CPPB): infinite | concentration required to achieve a VCIP48 of 0.4 mg (equivalent dose) ([1]; single CPE in CPPB): infinite | Emax (maximal VCIP48), derived from Equation (1) [1, 2]: 0.04 mg | p (Hill coefficient) [1, 2]: 2.75 | soluble concentration (in 12%[P407-PBP] solution, weight by volume): up to 4% | effect of pH on solubility in water (pH of the formulation tuned in the range of 3 to 9): not affected | solubility (physchem): ≥ 20 mg/mL

CCCCN1CCCCC1C(=O)Nc1c(C)cccc1C (stereo not drawn) [BUP-fb, bupivacaine free base]
solubility limit (in pure LIM): ~10%

C=C(C)[C@H]1CC=C(C)CC1 [LIM, limonene]
CPE concentration at which the permeation enhancement effect plateaued [1]: around 4% | Emax (maximal VCIP48), derived from Equation (1) [1]: 0.41 mg | concentration required to achieve VCIP48=0.22 mg (equivalent dose) [1]: ~1.8% | concentration required to achieve a VCIP48 of 0.4 mg (equivalent dose) [1]: ~4% | p (Hill coefficient) [1]: 5.33

CCCCCCCCCCCCOS(=O)(=O)[O-].[Na+] [SDS, Sodium dodecyl sulfate]
Emax (peak VCIP48), derived experimentally ([1]; experimentally determined peak effect, sulfate): 0.4 mg and 0.40 ^b mg | concentration required to achieve VCIP48=0.24 mg (equivalent dose) ([1]; single CPE in CPPB): 10% | p (Hill coefficient) [1, 2]: 0.82 ^ | Emax (maximal VCIP48), derived from Equation (1) ([1]; three-parameter hyperbolic fit of CPE concentration-VCIP48 curve, sulfate): 0.65 mg and 0.65 ^a mg

NC1=N[C@H](O)[C@H]2[C@H]3O[C@]4(O)O[C@@H]([C@@H](O)[C@@]2(N1)[C@@H]4O)[C@]3(O)CO [TTX, Tetrodotoxin]
Ki (sodium current): 0.001 to 0.002 µM | IC50 (action potentials): 0.005 to 0.006 µM

CCCCN1CCCCC1C(=O)Nc1c(C)cccc1C (stereo not drawn) [bupivacaine]
Ki (sodium current; in vitro): 25 µM | IC50 (action potentials; in vitro): 180 µM

O=C(O)c1cn(C2CC2)c2cc(N3CCNCC3)c(F)cc2c1=O [ciprofloxacin]
minimum inhibitory concentration (H. influenza): about 4 μg/mL | minimum inhibitory concentration (S. pneumoniae): about 4 μg/mL
